Laboratory results published in publication PMC7044277 (Nature Communications, 2020).
Where “and” joins values, the source holds several entries; their conditions need not be identical. Identical values can stand only once. Like-named read-outs stand apart in the source and are kept apart here.

Assays:
[1] = biological target: DRD2 (D2 long receptor) wild-type (Homo sapiens, UniProt P14416); assay: Radioligand competition binding, [3H]-N-methylspiperone, HEK293T membranes; conditions: DRD2; [3H]-methylspiperone (0.8-1.0 nM); read-out: Ki
DRD2 (D2 long receptor) wild-type, sequence (P14416 whole entry): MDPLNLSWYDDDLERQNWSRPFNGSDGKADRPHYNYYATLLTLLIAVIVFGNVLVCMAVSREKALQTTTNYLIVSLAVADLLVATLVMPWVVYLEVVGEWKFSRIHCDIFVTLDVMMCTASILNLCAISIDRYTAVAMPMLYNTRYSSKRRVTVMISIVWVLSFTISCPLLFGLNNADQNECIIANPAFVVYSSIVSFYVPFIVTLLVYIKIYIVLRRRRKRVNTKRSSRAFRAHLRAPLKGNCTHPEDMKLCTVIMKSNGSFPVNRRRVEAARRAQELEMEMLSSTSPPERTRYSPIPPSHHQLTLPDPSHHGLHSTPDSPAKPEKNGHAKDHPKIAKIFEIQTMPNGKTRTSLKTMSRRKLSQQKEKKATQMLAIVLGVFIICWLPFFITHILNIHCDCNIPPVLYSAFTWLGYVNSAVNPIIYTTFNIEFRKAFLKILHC

DRD3 wild-type = DRD3 wild-type (Homo sapiens, UniProt P35462); assay: Radioligand competition binding, [3H]-N-methylspiperone; conditions: DRD3 wild-type; read-out: pKi ± SEM (converted)
DRD3 wild-type, sequence (P35462 whole entry): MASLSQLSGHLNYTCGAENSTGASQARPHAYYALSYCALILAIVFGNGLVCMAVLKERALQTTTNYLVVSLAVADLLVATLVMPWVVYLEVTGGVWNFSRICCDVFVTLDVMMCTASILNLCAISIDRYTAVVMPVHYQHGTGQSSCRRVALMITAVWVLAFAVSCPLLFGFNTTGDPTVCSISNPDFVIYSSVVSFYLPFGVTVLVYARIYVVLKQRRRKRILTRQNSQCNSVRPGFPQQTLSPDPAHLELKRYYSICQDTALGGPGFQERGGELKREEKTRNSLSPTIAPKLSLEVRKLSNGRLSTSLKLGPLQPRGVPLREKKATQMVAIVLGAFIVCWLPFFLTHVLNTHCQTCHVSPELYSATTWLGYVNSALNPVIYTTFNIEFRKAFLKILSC

DRD3 F1063.28A = DRD3 F1063.28A (Homo sapiens, UniProt P35462, F106A); assay: biochemical; type: binding
DRD3 F1063.28A, sequence (P35462 whole entry F106A): as the sequence (P35462 whole entry) above, with F106A counted along it

DRD2 F1103.28L = biological target: T1, DRD2 F1103.28L (Homo sapiens, UniProt P14416, F110L); assay: Gαi/o-mediated cAMP inhibition (GloSensor), mutant; type: cell-based
T1 construct: expressed in transfected cells; host or cells: HEK293T (ATCC CRL-11268)
T1 sequence (P14416 whole entry F110L): as the sequence (P14416 whole entry) above, with F110L counted along it

DRD2 (D2 long receptor) = DRD2 (D2 long receptor) (Homo sapiens, UniProt P14416); assay: β-arrestin2 recruitment (Tango), HTLA cells; type: cell-based; conditions: for Response, Fig_S11c dose-response: individual replicates
DRD2 (D2 long receptor), sequence (P14416 whole entry): as the sequence (P14416 whole entry) above

DRD3 = DRD3 (Homo sapiens, UniProt P35462); assay: β-arrestin2 recruitment (Tango); type: cell-based; conditions: DRD3, Tango
DRD3, sequence (P35462 whole entry): as the sequence (P35462 whole entry) above

320 non-olfactory GPCRs = type: cell-based; conditions: replicate values, Fig_4g;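 also: fold over basal response of each receptor without drug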

CCOc1cccc2cc(C(C)NCC3(O)CCCCC3)oc12 (centres unmarked) [O4LE6]
Ki [1]: 1910 nM and 1900 nM
Ki (DRD3 wild-type): 224 nM
Ki (DRD3 F1063.28A): 460 nM
affinity decreased, mutant vs wild type (DRD3 F1063.28A; DRD3 Phe106^3.28Ala vs wild-type DRD3): 2.09 fold
EC50 (DRD2 F1103.28L; DRD2 F1103.28L (b138 head prints DRD2 F1063.28L)): 11.3 ± 2.27 nM
Emax (DRD2 F1103.28L; read-out: Emax relative to quinpirole response, DRD2 F1103.28L): 61%
EC50 (DRD2 (D2 long receptor); DRD2, β-arrestin2 recruitment (Tango), read-out: EC50 ± SEM): 43.2 ± 12.3 nM
response, Fig_S11c dose-response source data (DRD2 (D2 long receptor); Fig_S11c, Log[Drug] -5, replicate values): 112.633 and 105.275 and 98.5438 and 105.099 and 112.565
response, Fig_S11e dose-response source data (DRD2 (D2 long receptor); Log[Drug] -6.52, replicate values): 78.7922
response, Fig_S11e dose-response source data (DRD2 (D2 long receptor); Log[Drug] -7, replicate values): 72.0078 and 74.6368 and 66.9645 and 59.2359 and 63.6719 and 58.7266 and 59.326 and 73.941 and 65.8379
response, Fig_S11e dose-response source data (DRD2 (D2 long receptor); Log[Drug] -7.52, replicate values): 37.8418 and 44.9592 and 58.6118 and 43.0054 and 55.0074 and 48.586 and 48.419 and 72.5528 and 64.0624
response, Fig_S11e dose-response source data (DRD2 (D2 long receptor); Log[Drug] -8, replicate values): 15.3268 and 15.1148 and 16.7449 and 27.4037 and 26.6311 and 23.8074 and 19.9269 and 24.9446 and 21.2413
response, Fig_S11e dose-response source data (DRD2 (D2 long receptor); Log[Drug] -8.52, replicate values): 4.375 and 3.995 and 5.741 and 6.567 and 6.611 and 6.201 and 5.912 and 5.884 and 4.408
response, Fig_S11e dose-response source data (DRD2 (D2 long receptor); Log[Drug] -9, replicate values): 3.657 and 3.173 and 3.675 and 2.9749 and 3.073 and 3.47 and 2.665 and 3.951 and 5.063
response, Fig_S11e dose-response source data (DRD2 (D2 long receptor); Log[Drug] -9.52, replicate values): 2.783 and 2.8126 and 2.809 and 2.846 and 2.583 and 2.72 and 1.765 and 1.2028 and 2.471
response, Fig_S11e dose-response source data (DRD2 (D2 long receptor); Log[Drug] -10, replicate values): 3.027 and 2.494 and 2.707 and 2.723 and 2.793 and 2.57 and 1.765 and 1.586 and 1.567
response, Fig_S11e dose-response source data (DRD2 (D2 long receptor); Log[Drug] -10.52, replicate values): 2.869 and 2.577 and 2.7076 and 2.741 and 2.285 and 2.767 and 1.576 and 1.95 and 2.499
response, Fig_S11e dose-response source data (DRD2 (D2 long receptor); Log[Drug] -11, replicate values): 2.286 and 2.31 and 2.497 and 2.358 and 2.303 and 2.397 and 3.984 and 1.567 and 2.499
response, Fig_S11e dose-response source data (DRD2 (D2 long receptor); Log[Drug] -11.52, replicate values): 2.417 and 3.403 and 2.6551 and 2.344 and 2.523 and 2.357 and 1.752 and 2.8723 and 2.669
response, Fig_S11e dose-response source data (DRD2 (D2 long receptor); Log[Drug] -12, replicate values): 2.236 and 2.366 and 2.369 and 2.676 and 2.167 and 2.127 and 2.148 and 1.023 and 3.799
Emax (DRD2 (D2 long receptor); HTLA, read-out: Emax relative to quinpirole response, DRD2, Tango): 105%
β-arrestin2 recruitment response at DRD2 (source data, replicate values) (DRD2 (D2 long receptor); Log[Drug] -6.52): 78.7922
Response, Fig_S11c dose-response (DRD2 (D2 long receptor); Log[Drug] -6.52): 78.7922
β-arrestin2 recruitment response at DRD2 (source data, replicate values) (DRD2 (D2 long receptor); Log[Drug] -7): 72.0078 and 74.6368 and 66.9645 and 59.2359 and 63.6719 and 58.7266 and 59.326 and 73.941 and 65.8379
Response, Fig_S11c dose-response (DRD2 (D2 long receptor); Log[Drug] -7): 72.0078 and 74.6368 and 66.9645 and 59.2359 and 63.6719 and 58.7266 and 59.326 and 73.941 and 65.8379
β-arrestin2 recruitment response at DRD2 (source data, replicate values) (DRD2 (D2 long receptor); Log[Drug] -7.52): 37.8418 and 44.9592 and 58.6118 and 43.0054 and 55.0074 and 48.586 and 48.419 and 72.5528 and 64.0624
Response, Fig_S11c dose-response (DRD2 (D2 long receptor); Log[Drug] -7.52): 37.8418 and 44.9592 and 58.6118 and 43.0054 and 55.0074 and 48.586 and 48.419 and 72.5528 and 64.0624
β-arrestin2 recruitment response at DRD2 (source data, replicate values) (DRD2 (D2 long receptor); Log[Drug] -8): 15.3268 and 15.1148 and 16.7449 and 27.4037 and 26.6311 and 23.8074 and 19.9269 and 24.9446 and 21.2413
Response, Fig_S11c dose-response (DRD2 (D2 long receptor); Log[Drug] -8): 15.3268 and 15.1148 and 16.7449 and 27.4037 and 26.6311 and 23.8074 and 19.9269 and 24.9446 and 21.2413
β-arrestin2 recruitment response at DRD2 (source data, replicate values) (DRD2 (D2 long receptor); Log[Drug] -8.52): 4.375 and 3.995 and 5.741 and 6.567 and 6.611 and 6.201 and 5.912 and 5.884 and 4.408
Response, Fig_S11c dose-response (DRD2 (D2 long receptor); Log[Drug] -8.52): 4.375 and 3.995 and 5.741 and 6.567 and 6.611 and 6.201 and 5.912 and 5.884 and 4.408
β-arrestin2 recruitment response at DRD2 (source data, replicate values) (DRD2 (D2 long receptor); Log[Drug] -9): 3.657 and 3.173 and 3.675 and 2.9749 and 3.073 and 3.47 and 2.665 and 3.951 and 5.063
Response, Fig_S11c dose-response (DRD2 (D2 long receptor); Log[Drug] -9): 3.657 and 3.173 and 3.675 and 2.9749 and 3.073 and 3.47 and 2.665 and 3.951 and 5.063
β-arrestin2 recruitment response at DRD2 (source data, replicate values) (DRD2 (D2 long receptor); Log[Drug] -9.52): 2.783 and 2.8126 and 2.809 and 2.846 and 2.583 and 2.72 and 1.765 and 1.2028 and 2.471
Response, Fig_S11c dose-response (DRD2 (D2 long receptor); Log[Drug] -9.52): 2.783 and 2.8126 and 2.809 and 2.846 and 2.583 and 2.72 and 1.765 and 1.2028 and 2.471
β-arrestin2 recruitment response at DRD2 (source data, replicate values) (DRD2 (D2 long receptor); Log[Drug] -10): 3.027 and 2.494 and 2.707 and 2.723 and 2.793 and 2.57 and 1.765 and 1.586 and 1.567
Response, Fig_S11c dose-response (DRD2 (D2 long receptor); Log[Drug] -10): 3.027 and 2.494 and 2.707 and 2.723 and 2.793 and 2.57 and 1.765 and 1.586 and 1.567
β-arrestin2 recruitment response at DRD2 (source data, replicate values) (DRD2 (D2 long receptor); Log[Drug] -10.52): 2.869 and 2.577 and 2.7076 and 2.741 and 2.285 and 2.767 and 1.576 and 1.95 and 2.499
Response, Fig_S11c dose-response (DRD2 (D2 long receptor); Log[Drug] -10.52): 2.869 and 2.577 and 2.7076 and 2.741 and 2.285 and 2.767 and 1.576 and 1.95 and 2.499
β-arrestin2 recruitment response at DRD2 (source data, replicate values) (DRD2 (D2 long receptor); Log[Drug] -11): 2.286 and 2.31 and 2.497 and 2.358 and 2.303 and 2.397 and 3.984 and 1.567 and 2.499
Response, Fig_S11c dose-response (DRD2 (D2 long receptor); Log[Drug] -11): 2.286 and 2.31 and 2.497 and 2.358 and 2.303 and 2.397 and 3.984 and 1.567 and 2.499
β-arrestin2 recruitment response at DRD2 (source data, replicate values) (DRD2 (D2 long receptor); Log[Drug] -11.52): 2.417 and 3.403 and 2.6551 and 2.344 and 2.523 and 2.357 and 1.752 and 2.8723 and 2.669
Response, Fig_S11c dose-response (DRD2 (D2 long receptor); Log[Drug] -11.52): 2.417 and 3.403 and 2.6551 and 2.344 and 2.523 and 2.357 and 1.752 and 2.8723 and 2.669
β-arrestin2 recruitment response at DRD2 (source data, replicate values) (DRD2 (D2 long receptor); Log[Drug] -12): 2.236 and 2.366 and 2.369 and 2.676 and 2.167 and 2.127 and 2.148 and 1.023 and 3.799
Response, Fig_S11c dose-response (DRD2 (D2 long receptor); Log[Drug] -12): 2.236 and 2.366 and 2.369 and 2.676 and 2.167 and 2.127 and 2.148 and 1.023 and 3.799
EC50 (DRD3; read-out: EC50 ± SEM): 708.5 ± 6.3 nM
Emax (DRD3; read-out: Emax relative to quinpirole response): 15.8%
GPCRome agonism screen response (320 non-olfactory GPCRs; receptor LTB4R2B): 0.6938 and 0.9232 and 0.5075
GPCRome agonism screen response (320 non-olfactory GPCRs; receptor NPS): 0.4686 and 1.378 and 0.7119 and 0.6607
GPCRome agonism screen response (320 non-olfactory GPCRs; receptor PK1): 0.8997 and 0.9125 and 0.8846 and 0.857
GPCRome agonism screen response (320 non-olfactory GPCRs; receptor PRRP): 0.431 and 1.1359 and 1.866 and 0.5549
GPCRome agonism screen response (320 non-olfactory GPCRs; receptor QRFP): 0.8017 and 1.022 and 0.9768 and 1
GPCRome agonism screen response (320 non-olfactory GPCRs; receptor SSSTR): 0.8501 and 0.9752 and 2.465 and 0.6314
